# Source: patent US20140303105A1, “Primycin and components thereof for use in the treatment or prevention of infections caused by specific pathogens” (PANNONPHARMA GYÓGYSZERGYÁRTÓ ZRT., priority 2011, published 2014)
# How the values were obtained:
# Assay type in all cases: cell-based
# [1] = test system: Staphylococcus aureus, methicillin susceptible; experiment: Standard microdilution susceptibility test, clinical isolates; conditions: for MIC Range / Ratio of Sensitive/Total / MIC 50% / MIC 90%: 10 clinical isolates
# [2] = test system: Staphylococcus aureus, methicillin resistant; experiment: as above; conditions: for MIC Range / Ratio of Sensitive/Total / MIC 50% / MIC 90%: 10 clinical isolates
# [3] = test system: Coagulase-negative Staphylococus sp., methicillin susceptible; experiment: as above; conditions: for MIC Range / Ratio of Sensitive/Total / MIC 50% / MIC 90%: 10 clinical isolates
# [4] = test system: Coagulase-negative Staphylococus sp., methicillin resistant; experiment: as above
# [5] = test system: Enterococcus sp., vancomycin susceptible; experiment: as above
# [6] = test system: Enterococcus sp., decreased vancomycin susceptibility; experiment: as above; conditions: 5 clinical isolates
# [7] = test system: Streptococcus pneumoniae, penicillin susceptible; experiment: as above; conditions: for MIC Range / Ratio of Sensitive/Total / MIC 50% / MIC 90%: 10 clinical isolates
# [8] = test system: Streptococcus pneumoniae, penicillin resistant; experiment: as above
# [9] = test system: Streptococcus viridans sp.; experiment: as above
# E. casseliflavus = experiment: Microdilution MIC, Enterococcus isolates with van resistance genes; conditions: Enterococcus casseliflavus
# Method: Identification and characterization of resistance patterns of these bacteria were performed by standard methods.
# When forming the test groups we attached great importance to the increasing incidence of drug-resistant microbes causing therapeutic problems. Most important of them are methicillin-resistant Staphylococcus aureus (MRSA), methicillin-resistant coagulase-negative Staphylococcus spp. (MRCoNS), penicillin-resistant Streptococcus pneumoniae (pneumococcus), vancomycin-resistant Enterococcus spp. (VRE). Pneumococcus isolates represented various serotypes, VRE isolates belonged to various species. Moreover, vancomycin-resistance of VRE isolates was based on different genetic backgrounds. Antibiotic-resistant strains were also represented among international reference strains, for example methicillin-resistant Staphylococcus aureus ATCC 43300 (MRSA), Staphylococcus aureus with decreased vancomycin susceptibility ATCC 700698 and 700699 (vancomycin intermediate Staphylococcus aureus—VISA), mupirocin-resistant Staphylococcus aureus ATCC BAA1708 and vancomycin-resistant Enterococcus faecalis ATCC 51299 (VRE).
# Susceptibility tests were performed according to the standard microdilution method (NCCLS (CLSI) M7-A7).
# The lowest concentration at which no bacterial growth was observed after the incubation period is the Minimal Inhibitory Concentration (MIC). The MIC value is inversely proportional to the antimicrobial efficacy. MIC values of antimicrobial agents can differ by species or even by bacterial strains within species.
compound,measurement,setting,value
CN[C@H](CC(C)C)C(=O)N[C@H]1C(=O)N[C@@H](CC(N)=O)C(=O)N[C@H]2C(=O)N[C@H]3C(=O)N[C@H](C(=O)N[C@H](C(=O)O)c4cc(O)cc(O)c4-c4cc3ccc4O)[C@H](O)c3ccc(c(Cl)c3)Oc3cc2cc(c3O[C@@H]2O[C@H](CO)[C@@H](O)[C@H](O)[C@H]2O[C@H]2C[C@](C)(N)[C@H](O)[C@H](C)O2)Oc2ccc(cc2Cl)[C@H]1O [Vancomycin],MIC Range,[1],0.5 to 2 µg/mL
same,Ratio of Sensitive/Total,[1],10/10
same,MIC50,[1]; Staphylococcus aureus,1 µg/mL
same,MIC90,[1]; Staphylococcus aureus,1 µg/mL
same,MIC Range,[2],0.5 to 1 µg/mL
same,Ratio of Sensitive/Total,[2],10/10
same,MIC50,[2]; Staphylococcus aureus,1 µg/mL
same,MIC90,[2]; Staphylococcus aureus,1 µg/mL
same,MIC50,[3],1 µg/mL
same,MIC90,[3],2 µg/mL
same,MIC Range,[3],1 to 2 µg/mL
same,Ratio of Sensitive/Total,[3],10/10
same,MIC50,[4],2 µg/mL
same,MIC90,[4],2 µg/mL
same,MIC Range,[4]; 10 clinical isolates,1 to 2 µg/mL
same,Ratio of Sensitive/Total,[4]; 10 clinical isolates,10/10
same,MIC Range,[5]; 20 clinical isolates,1 to 4 µg/mL
same,Ratio of Sensitive/Total,[5]; 20 clinical isolates,20/20
same,MIC50,[5]; Enterococcus,1 µg/mL
same,MIC90,[5]; Enterococcus,2 µg/mL
same,Ratio of Sensitive/Total,[6],0/5
same,MIC Range,[7],0.25 to 0.5 µg/mL
same,Ratio of Sensitive/Total,[7],10/10
same,MIC50,[7]; Streptococcus pneumoniae,0.5 µg/mL
same,MIC90,[7]; Streptococcus pneumoniae,0.5 µg/mL
same,MIC Range,[8]; 10 clinical isolates,0.25 to 0.5 µg/mL
same,Ratio of Sensitive/Total,[8]; 10 clinical isolates,10/10
same,MIC50,[8]; Streptococcus pneumoniae,0.5 µg/mL
same,MIC90,[8]; Streptococcus pneumoniae,0.5 µg/mL
same,MIC Range,[9]; 20 clinical isolates,0.5 to 1 µg/mL
same,Ratio of Sensitive/Total,[9]; 20 clinical isolates,10/20
same,MIC50,[9]; Streptococcus viridans,0.5 µg/mL
same,MIC90,[9]; Streptococcus viridans,1 µg/mL
same,MIC,E. casseliflavus; resistance gene van C1,16 µg/mL
same,MIC,E. casseliflavus; resistance gene van C2,8 µg/mL
Gentamicin,MIC 50%,[1],0.5 µg/mL
same,MIC 90%,[1],0.5 µg/mL
same,MIC Range,[1],0.25 to 0.5 µg/mL
same,Ratio of Sensitive/Total,[1],10/10
same,MIC 50%,[2],0.5 µg/mL
same,MIC 90%,[2],0.5 µg/mL
same,MIC Range,[2],0.25 to 1 µg/mL
same,Ratio of Sensitive/Total,[2],10/10
same,MIC 50%,[3],0.125 µg/mL
same,MIC 90%,[3],4 µg/mL
same,MIC Range,[3],0.03 to 8 µg/mL
same,Ratio of Sensitive/Total,[3],9/10
same,MIC 50%,[4]; 10 clinical isolates,0.125 µg/mL
same,MIC 90%,[4]; 10 clinical isolates,>16 µg/mL
same,Ratio of Sensitive/Total,[4]; 10 clinical isolates,6/10
same,MIC 50%,[5]; 20 clinical isolates,8 µg/mL
same,MIC 90%,[5]; 20 clinical isolates,>16 µg/mL
same,Ratio of Sensitive/Total,[5]; 20 clinical isolates,1/20
same,MIC Range,[6],8 to 16 µg/mL
same,Ratio of Sensitive/Total,[6],0/5
same,MIC 50%,[7],16 µg/mL
same,MIC 90%,[7],16 µg/mL
same,MIC Range,[7],8 to 16 µg/mL
same,Ratio of Sensitive/Total,[7],0/10
same,MIC 50%,[8]; 10 clinical isolates,16 µg/mL
same,MIC 90%,[8]; 10 clinical isolates,>16 µg/mL
same,Ratio of Sensitive/Total,[8]; 10 clinical isolates,0/10
same,MIC 50%,[9]; 20 clinical isolates,8 µg/mL
same,MIC 90%,[9]; 20 clinical isolates,16 µg/mL
same,Ratio of Sensitive/Total,[9]; 20 clinical isolates,9/20
Neomycin,MIC 50%,[1],1 µg/mL
same,MIC 90%,[1],2 µg/mL
same,MIC Range,[1],0.5 to 2 µg/mL
same,Ratio of Sensitive/Total,[1],10/10
same,MIC 50%,[2],1 µg/mL
same,MIC 90%,[2],>32 µg/mL
same,Ratio of Sensitive/Total,[2],5/10
same,MIC 50%,[3],0.25 µg/mL
same,MIC 90%,[3],1 µg/mL
same,MIC Range,[3],0.06 to 4 µg/mL
same,Ratio of Sensitive/Total,[3],10/10
same,MIC 50%,[4]; 10 clinical isolates,0.25 µg/mL
same,MIC 90%,[4]; 10 clinical isolates,16 µg/mL
same,Ratio of Sensitive/Total,[4]; 10 clinical isolates,8/10
same,MIC 50%,[5]; 20 clinical isolates,>32 µg/mL
same,MIC 90%,[5]; 20 clinical isolates,>32 µg/mL
same,Ratio of Sensitive/Total,[5]; 20 clinical isolates,0/20
same,Ratio of Sensitive/Total,[6],0/5
same,MIC 50%,[7],>32 µg/mL
same,MIC 90%,[7],>32 µg/mL
same,Ratio of Sensitive/Total,[7],0/10
same,MIC 50%,[8]; 10 clinical isolates,>32 µg/mL
same,MIC 90%,[8]; 10 clinical isolates,>32 µg/mL
same,Ratio of Sensitive/Total,[8]; 10 clinical isolates,0/10
same,MIC 50%,[9]; 20 clinical isolates,>32 µg/mL
same,MIC 90%,[9]; 20 clinical isolates,>32 µg/mL
same,Ratio of Sensitive/Total,[9]; 20 clinical isolates,0/20
